Calls of active or inactive are those of the source. The rule behind the calls is not given here.

Test [1] has as its system Human immunodeficiency virus 1. Kind of test: Potentiation of 5-Aza-dC-induced antiviral activity against VSV-G pseudotyped HIV-1 NL4-3 infected in human U373-MAGI cells assessed as increase in frequency of C to G transversion at 50 uM incubated for 4 hrs preinfection followed by 5-Aza-C addition for 2 hrs preinfection and subsequent viral infection measured at 72 hrs post infection by illumina sequencing method relative to control. The class given is functional, organism-based.

Test [2] concerns U373-MAGI. Kind of test: Reduction in dCTP level in human U373-MAGI cells at 50 uM preincubated for 2 hrs followed by 5-aza-dC addition measured after 4 hrs by LC-MS/MS analysis relative to 5-aza-dC. The class given is functional, cell-based.
Test [3] deals with U373-MAGI. The test can be described thus: Effect on dRGU-TP level in human U373-MAGI cells at 200 uM preincubated for 2 hrs followed by 5-aza-dC addition measured after 4 hrs by LC-MS/MS analysis. The test is classed as functional, cell-based.
For test [4], the system named is U373-MAGI. Kind of test: Increase in 5-aza-dCTP/dCTP ratio in human U373-MAGI cells at 200 uM preincubated for 2 hrs followed by 5-aza-dC addition measured after 4 hrs by LC-MS/MS analysis relative to 5-aza-dC. The class given is functional, cell-based.
Test [5] concerns Human immunodeficiency virus 1. Kind of test: Antiviral activity against VSV-G pseudotyped HIV-1 NL4-3 infected in human U373-MAGI cells assessed as increase in frequency of C to A transversion at 50 uM incubated for 4 hrs prior to infection measured at 72 hrs post infection by illumina sequencing method relative to control. The class given is functional.
Test [6] concerns Human immunodeficiency virus 1. Kind of test: Antiviral activity against VSV-G pseudotyped HIV-1 NL4-3 infected in human U373-MAGI cells assessed as reduction in gag level at 50 uM measured at 6 hrs post infection by qPCR method. The test is classed as functional, organism-based. (In general: Real-time PCR tracks product formation cycle by cycle.)
Test [7] has as its system U373-MAGI. The test can be described thus: Effect on 5-aza-dCTP level in human U373-MAGI cells at 50 uM preincubated for 2 hrs followed by 5-aza-dC addition measured after 4 hrs by LC-MS/MS analysis. The test is classed as functional, cell-based.
Test [8] deals with Human immunodeficiency virus 1. Kind of test: Potentiation of 5-Aza-C-induced antiviral activity against VSV-G pseudotyped HIV-1 NL4-3 infected in human U373-MAGI cells assessed as increase in total mutation frequency at 50 uM incubated for 4 hrs preinfection followed by 5-Aza-C addition for 2 hrs preinfection and subsequent viral infection measured at 72 hrs post infection by illumina sequencing method relative to control. The test is classed as functional, organism-based.

Test [9] deals with Human immunodeficiency virus 1. The test can be described thus: Antiviral activity against VSV-G pseudotyped HIV-1 NL4-3 infected in human U373-MAGI cells assessed as reduction in U5-gag level at 50 uM measured at 12 to 72 hrs post infection by qPCR method. The class given is functional, organism-based.
For test [10], the system named is U373-MAGI. Kind of test: Reduction in dGTP level in human U373-MAGI cells at 50 uM after 6 hrs by LC-MS/MS analysis. The class given is functional, cell-based.
Test [11] relates to Human immunodeficiency virus 1. The test can be described thus: Antiviral activity against VSV-G pseudotyped HIV-1 NL4-3 infected in human U373-MAGI cells assessed as Vif mutation at 50 uM incubated for 4 hrs prior to infection measured at 72 hrs post infection by illumina sequencing method (reference value: 19.2%). The test is classed as functional.
For test [12], the system named is Human immunodeficiency virus 1. The test can be described thus: Potentiation of 5-Aza-C-induced antiviral activity against VSV-G pseudotyped HIV-1 NL4-3 infected in human U373-MAGI cells assessed as Vif mutation at 50 uM incubated for 4 hrs preinfection followed by 5-Aza-C addition for 2 hrs preinfection and subsequent viral infection measured at 72 hrs post infection by illumina sequencing method (reference value: 19.2%). The test is classed as functional.

In test [13] the test system is Human immunodeficiency virus 1. Kind of test: Antiviral activity against VSV-G pseudotyped HIV-1 NL4-3 infected in human U373-MAGI cells assessed as reduction in viral infectivity at 50 uM incubated for 4 hrs prior to viral infection measured at 72 hrs post infection by flow cytometric analysis. The class given is functional, organism-based. (In general: Flow cytometry measures light scatter and fluorescence of single cells or particles in a stream.)

Test [14] concerns Human immunodeficiency virus 1. Kind of test: Antiviral activity against VSV-G pseudotyped HIV-1 NL4-3 infected in human U373-MAGI cells assessed as reduction in U5-gag level at 50 uM measured at 6 hrs post infection by qPCR method. The class given is functional, organism-based.

Regarding `Oc1ccc(/C=C/c2cc(O)cc(O)c2)cc1` [RESVERATROL], the result (in test [1]; in the test with U373-MAGI [3]; with U373-MAGI [7]; in test [8]; in test [9]; with U373-MAGI [10]) was inactive. Further, the outcome (in the test on U373-MAGI [2]; with U373-MAGI [4]; in test [6]; in [13]; in test [14]) was Active. The “fold change (FC)” value in test [5] is given as 1.3. Moreover, the Activity in test [11] came out at 23.4%; in [12], 22.6%.

The record behind these values is ChEMBL document CHEMBL3797079, “Synergistic reduction of HIV-1 infectivity by 5-azacytidine and inhibitors of ribonucleotide reductase” (Bioorg Med Chem, 2016).
